# Experiments:
# [1] = system: Pseudomonas aeruginosa biofilm, PA1 strain; assay: Biofilm viability and volume by live/dead staining and CLSM, PA1 strain; type: cell-based; details: 6 hours, MH 14% w/v, nitrite 10 mM
# Procedure: (§1) A culture of PA, grown overnight in TSB, was diluted to 10^8 cells/mL. The bacterial suspension was then adjusted to 10^5 cells/mL in TSB and inoculated into an 8 well LabTek II Chambered #15 Coverglass System (Thermo Fisher Scientific). The chamber system was incubated at 37° C. for 48 hours. The media was replenished after 24 hours to maintain bacterial viability.
# (§2) Established biofilms were divided into four treatment groups: 1) negative control with untreated bacterial suspension, 2) MH, 3) nitrite (10 mM), and 4) MH administered with nitrite (10 mM). Bacteria were treated with the appropriate treatment solution, as above, for 6 hours under complete darkness at 37° C. followed by washing with PBS. Staining was performed using the BacLight LIVE/DEAD Bacterial Viability kit (Invitrogen, Carlsbad, CA). The LIVE/DEAD kit solution constituting Syto9 and propidium iodide was then applied to each well of the chamber slide system for 1 hour at room temperature in darkness. After incubation, each sample was rinsed with PBS and incubated in 10% buffered formalin for 20 minutes at room temperature in darkness. […]
# (§3) Images of biofilms were taken using a TCS SP5 CLSM (Leica Microsystems, Wetzlar, Germany) configured to a 488-nm argon laser with a 63× objective. […] Volocity software (PerkinElmer, Waltham, MA) was used to quantify biofilm viability and biomass in each Z-stack.
# [2] = system: Pseudomonas aeruginosa planktonic isolates (PA1 strain); assay: Colony forming unit (CFU) assay, titration of nitrite dose with MH; type: cell-based; details: PA1, 6 hours at 37° C.; MH or nitrite (10 mM) alone
# Procedure: An overnight-grown culture of the PA1 strain in TSB was diluted to 10^8 cells/mL based on McFarland equivalence turbidity standard No. 0.5 (Thermo Fisher Scientific) and then adjusted to 10^5 cells/mL in TSB. Suspensions were treated with MH, nitrite, and serial dilutions of nitrite from 10 mM to 1 μM combined with MH. Untreated bacteria were used as negative controls. Bacterial suspensions were mixed using a tube rotator to ensure uniform distribution of bacteria and then incubated at 37° C. for 6 hours. Suspensions were then diluted in PBS and plated on TSA. Bacterial viability was determined by counting the number of colonies established on an agar plate after overnight incubation at 37° C.
# [3] = NO release rate measured with a Sievers 280i nitric oxide analyzer; type: physicochemical
# Procedure: NO release rates were measured using a Sievers 280i nitric oxide analyzer (GE Instruments, Boulder, CO). Samples were dispersed in 5 mL tryptic soy broth (TSB) or MH 14% w/v in TSB at room temperature. Release kinetics were analyzed using Sievers NOAnalysis software (GE Instruments) with 12 measurements per minute recorded for 280 total minutes.
# [4] = system: Pseudomonas aeruginosa biofilm, ATCC 15692 strain; assay: Biofilm viability and volume by live/dead staining and CLSM, ATCC 15692 strain; details: ATCC 15692 biofilm, 6 hours; MH 14% w/v, nitrite 10 mM, SNO-MP/B-MP 10 mg/mL
# Procedure: as §1, §2, §3
# [5] = over 280 minutes, nitrite 5 mM, MH 14% w/v, SNO-MP and blank-MP 5 mg/mL, TSB, room temperature
structure (smiles),measurement,setting,value
"O=NO [nitrite, sodium nitrite]",reduction in biofilm volume relative to control,[1]; SNO-MP 10 mg/mL,43.9%
same,reduction in live cells (cell viability) relative to control,[1]; SNO-MP/B-MP 10 mg/mL,did not significantly reduce
same,reduction in CFU versus controls,[2],did not have a significant effect
same,"NO release curve, key points in words (FIG. 1)","[3]; 280 minutes, neutral pH, nitrite 5 mM, MH 14% w/v, SNO-MP 5 mg/mL",no NO production
same,NO detected,"[3]; nitrite 5 mM in tryptic soy broth, room temperature",less than 0.1 ppm
same,"NO release, mean",[3]; [5],0.004±0.001 ppm
same,"NO release, range",[3]; [5],0.003-0.009 ppm
same,reduction in live cells (cell viability) relative to control,[4],did not significantly reduce
